Reference: ChEMBL document CHEMBL1122119

Experiments:
[1] = biological target: T1, Adenylate cyclase (Rattus norvegicus) (UniProt D4A3N4+P26770+Q04400+P26769+Q03343+P40146+Q8CFM9+P21932); assay: Ability (50 uM) to stimulate dopamine sensitive adenylate cyclase from rat corpus striatum in the presence of excess ATP; type: functional
[2] = biological target: T1, Adenylate cyclase (Rattus norvegicus); assay: Ability (250 uM) to stimulate dopamine sensitive adenylate cyclase from rat corpus striatum in the presence of excess ATP; type: functional

SMILES | Cyclase stimulation [1] [%] | Cyclase stimulation [2] [%]
CN1CCc2cccc3c2[C@H]1Cc1ccc(O)c(O)c1-3 | 48 | 
CN1CCc2cc(O)cc3c2[C@@H]1Cc1ccc(O)c(O)c1-3 |  | 9
CN1CCc2cc(O)cc3c2[C@H]1Cc1ccc(O)c(O)c1-3 |  | 59
NCCc1ccc(O)c(O)c1 | 58 | 
